Reference: US12398141B2 (SHANGHAI SYNERGY PHARMACEUTICAL SCIENCES CO., LTD, priority 2019, dated 2025)

Target: hERG potassium channel (Homo sapiens (Human), UniProt Q12809)
Assay: hERG potassium channel current, manual patch clamp
Type: cell-based
Conditions: HEK293 cells overexpressing hERG potassium channel, whole-cell patch clamp; read-out: IC50 (μM) inhibiting hERG current
Experimental: Effects of compounds H07, H12, H14, H25, H30, H39 and H44 on hERG potassium channel were detected by applying electrophysiological manual patch clamp to study an initial cardiac safety of the compounds of the invention.
Test compounds were dissolved in dimethyl sulfoxide to prepare mother solutions (10 mM, 3.3 mM, 1.1 mM and 0.37 mM). Next an extracellular fluid was used for secondary dilution so that the test solution had final concentrations of 30 μM, 10 μM, 3.3 μM, 1.1 μM and 0.37 μM.
Extracellular fluids: 130 mM sodium chloride, 4 mM potassium chloride, 1.8 mM calcium chloride, 1 mM magnesium chloride, 10 mM glucose, 10 mM 4-hydroxyethylpiperazine ethane sulfonic acid (pH 7.4)
Intracellular fluid: 130 mM potassium chloride, 1 mM magnesium chloride, 5 mM ethylene glycol diethyl ether diamine tetraacetic acid, 5 mM triphosadenine and 10 mM 4-hydroxyethylpiperazine ethane sulfonic acid (pH7.2)
Compositions of a cell culture medium: Dulbecco's modified eagle medium (Grand Turk Island Biotechnology Company, 11330032), 15% fetal calf serum (Sigma, A15-101, USA), 1% penicillin-streptomycin (Biowest, L0022-100).
HEK293 cells overexpressing hERG potassium channel (from Dr. Mohamed Boutjdir's laboratory, School of Medicine, New York University—PharmaCore Labs, Inc.) were incubated in a medium consisting of Dulbecco's modified eagle medium/15% fetal calf serum/1% penicillin-streptomycin in a 5% CO2 incubator at 37° C. In the test, the cells were transferred to a cell bath embedded into a inverted microscope platform, and extracellular fluid was perfused. After stabilization for 5 minutes, the cells were precipitated and then the test could start. Membrane currents were recorded by using HEKA EPC-10 patch clamp amplifier and […] acquisition system (HEKA Instrument Co., Ltd., D-67466 Lambrcht, Palatinate, Germany). All tests were completed at room temperature (22-24° C.). P-97 microelectrode puller (Sutter Instrument Company, Novato, […] 94949) was used to straighten the electrodes (BF150-110-10). The inner diameter of the electrode was 1-1.5 mm, and the water resistance after internal liquid filling was 2-4 MΩ.
Tests were carried out in whole-cell recording mode, with current values recorded according to the electrophysiological stimulation protocol below. First, the membrane voltage was clamped at −80 mV, and the cells were stimulated with +20 mV for two seconds to activate hERG potassium channel, which was then repolarized to −50 mV for five seconds, producing an outward tail current with a stimulation frequency of every 15 seconds. The current value was a peak value of the tail current. In the test, the channel current was recorded in the whole-cell recording mode. First, extracellular fluid (about 2 ml per minute) was perfused and recorded continuously, and then the current was allowed to stabilize (current decay (run-down) was less than 5% within 5 minutes). At this time, the peak value of the tail current was the control current value. Subsequently, the extracellular fluid containing the drug to be tested was perfused and recorded continuously until the inhibiting effect of drug on hERG current reached a stable state, at which time the peak value of the tail current was the current value after adding drugs. After a stable situation was achieved, if hERG current recovered after perfusing and washing with extracellular fluid, perfusion could be continued to test other concentrations or drugs. The solution containing the drugs to be tested was perfused in descending order of concentration and the current values were recorded. […] V2X60 (HEKA Instrument Co., Ltd., D-67466 Lambrcht, Palatinate, Germany) was used to collect data. ORANGE 8.5 (ORANGE Laboratory Company, Northampton, UK) software was used for the analysis and statistics.

hERG potassium channel, sequence (Q12809 whole entry): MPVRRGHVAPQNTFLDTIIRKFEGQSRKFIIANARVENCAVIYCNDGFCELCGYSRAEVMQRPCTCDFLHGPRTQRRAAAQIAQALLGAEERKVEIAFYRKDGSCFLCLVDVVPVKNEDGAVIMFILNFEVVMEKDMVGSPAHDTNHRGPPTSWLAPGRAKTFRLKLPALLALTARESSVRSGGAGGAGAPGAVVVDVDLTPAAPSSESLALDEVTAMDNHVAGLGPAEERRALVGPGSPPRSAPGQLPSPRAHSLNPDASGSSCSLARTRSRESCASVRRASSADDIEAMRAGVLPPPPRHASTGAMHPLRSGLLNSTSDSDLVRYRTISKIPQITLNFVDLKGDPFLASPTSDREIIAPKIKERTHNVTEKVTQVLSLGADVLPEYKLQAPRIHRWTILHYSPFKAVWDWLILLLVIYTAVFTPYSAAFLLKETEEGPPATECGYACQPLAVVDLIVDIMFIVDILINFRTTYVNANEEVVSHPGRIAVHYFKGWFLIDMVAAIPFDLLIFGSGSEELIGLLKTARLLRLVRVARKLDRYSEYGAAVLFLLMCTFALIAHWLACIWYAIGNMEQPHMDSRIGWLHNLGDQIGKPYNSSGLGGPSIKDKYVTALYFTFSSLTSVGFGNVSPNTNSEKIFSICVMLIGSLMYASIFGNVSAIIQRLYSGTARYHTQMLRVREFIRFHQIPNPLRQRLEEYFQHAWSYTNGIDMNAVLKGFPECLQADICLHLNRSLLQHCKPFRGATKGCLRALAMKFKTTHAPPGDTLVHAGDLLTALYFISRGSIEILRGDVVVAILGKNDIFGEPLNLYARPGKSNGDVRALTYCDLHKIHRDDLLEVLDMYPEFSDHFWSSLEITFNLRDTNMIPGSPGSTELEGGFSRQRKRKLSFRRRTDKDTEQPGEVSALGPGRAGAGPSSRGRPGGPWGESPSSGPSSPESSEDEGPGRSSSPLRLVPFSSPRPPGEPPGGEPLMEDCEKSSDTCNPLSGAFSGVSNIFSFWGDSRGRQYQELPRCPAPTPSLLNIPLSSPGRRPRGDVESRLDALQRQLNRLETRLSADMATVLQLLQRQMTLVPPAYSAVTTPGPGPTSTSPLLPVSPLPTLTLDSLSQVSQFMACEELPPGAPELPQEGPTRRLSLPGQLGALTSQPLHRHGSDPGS

| SMILES | IC50 [µM] |
| --- | --- |
| COc1nsc(NC(=O)N2C[C@H]3C[C@H](N(C)c4c(C#N)cnc5[nH]ccc45)C[C@H]3C2)n1 [Compound H07, (3aR,5s,6aS)-4-({2-[(3-methoxy-1,2,4-thiadiazole-5-yl)carbamoyl]-hexahydrocyclopenta[c]pyrrole-5-yl}-methyl-amino)-1H-pyrrolo[2,3-b]pyridin-5-carbonitrile] | > 30 |
| CN(c1c(C#N)cnc2[nH]ccc12)[C@H]1C[C@@H]2CN(C(=O)Nc3ccc(Cl)c(C(F)(F)F)c3)C[C@@H]2C1 [Compound H25, (3aR,5s,6aS)-N-(4-chloro-3-(trifluoromethyl)phenyl)-5-((5-cyano-1H-pyrrolo[2,3-b]pyridin-4-yl)(methyl)amino)hexahydrocyclopentadiene[c]pyrrole-2(1H)-carboxamide] | > 30 |
| CC(C)c1nsc(NC(=O)N2C[C@H]3C[C@H](N(C)c4c(C#N)cnc5[nH]ccc45)C[C@H]3C2)n1 [Compound H30, (3aR,5s,6aS)-4-({2-[(3-isopropyl-1,2,4-thiadiazole-5-yl)carbamoyl]-hexahydrocyclopenta[c]pyrrole-5-yl}-methyl-amino)-1H-pyrrolo[2,3-b]pyridin-5-carbonitrile] | > 30 |
| CN(c1c(C#N)cnc2[nH]ccc12)[C@H]1C[C@@H]2CN(C(=O)Nc3nc(OCC(C)(C)N)ns3)C[C@@H]2C1 [Compound H44, (3aR,5s,6aS)-5-((5-cyano-1H-pyrrolo[2,3-b]pyridin-4-yl)(methyl)amino)-N-(3-(2-amino-2-methyl-propoxy)-1,2,4-thiadiazole-5-yl)hexahydrocyclopentadiene[c]pyrrole-2(1H)-carboxamide] | > 30 |
| CCCS(=O)(=O)N[C@H]1C[C@@H](N(C)c2c(C#N)cnc3[nH]ccc23)C1 [Compound H14, (cis)-4-{[3-(propanesulfonamido)-cyclobutyl-1-yl]-methyl-amino}-1H-pyrrolo[2,3-b]pyridin-5-carbonitrile] | > 30 |
| N#Cc1cnc2[nH]ccc2c1N[C@H]1C[C@@H](NS(=O)(=O)CCC(F)(F)F)C1 [Compound H12, (cis)-4-{[3-(3,3,3-trifluoropropanesulfonamido)-cyclobutyl-1-yl]-amino}-1H-pyrrolo[2,3-b]pyridin-5-carbonitrile] | > 30 |
| N#Cc1cnc2[nH]ccc2c1N1CC2CN(C(=O)NCC(F)(F)F)CC21 (stereo not shown) [Compound H39, 6-(5-cyano-1H-pyrrolo[2,3-b]pyridin-4-yl)-N-(2,2,2-trifluoroethyl)-3,6-diazabicyclo[3.2.0]heptane-3-carboxamide] | > 30 |
